The target in this test is T1, human CCR-3 (Homo sapiens, UniProt P51677).
T1 construct: expressed in transfected cells; membranes prepared
T1 sequence (P51677 1-355): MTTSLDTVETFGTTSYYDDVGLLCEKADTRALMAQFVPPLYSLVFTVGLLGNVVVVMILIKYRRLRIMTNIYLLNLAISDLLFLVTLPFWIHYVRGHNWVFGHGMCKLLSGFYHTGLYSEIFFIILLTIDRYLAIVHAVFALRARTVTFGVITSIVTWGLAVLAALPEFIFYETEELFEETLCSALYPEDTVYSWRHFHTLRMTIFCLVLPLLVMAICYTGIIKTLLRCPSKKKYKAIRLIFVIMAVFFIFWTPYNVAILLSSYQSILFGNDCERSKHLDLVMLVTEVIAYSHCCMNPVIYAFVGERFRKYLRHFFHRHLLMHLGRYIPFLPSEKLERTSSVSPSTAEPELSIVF
The experiment in a line: [125I]-human eotaxin binding SPA assay on membranes of RBL-2H3 cells stably expressing CCR3. The following applies: membranes of RBL-2H3 cells expressing CCR3, 50 pM [125I]-human eotaxin, 4 hours at room temperature, read-out: IC50 (inhibition of binding of [125I]-human eotaxin to CCR-3). The text has this: Recombinant cells expressing human CCR-3 are captured by wheatgerm agglutinin (WGA) polyvinyltoluidene (PVT) SPA beads (available from Amersham), through a specific interaction between the WGA and carbohydrate residues of glycoproteins on the surface of the cells. [^125I]-human eotaxin (available from Amersham) binds specifically to CCR-3 receptors bringing the [^125I]-human eotaxin in close proximity to the SPA beads. Emitted â-particles from the [^125I]-human eotaxin excite, by its proximity, the fluorophore in the beads and produce light.
Preparation of Assay Buffer: 5.96 g HEPES and 7.0 g sodium chloride are dissolved in distilled water and 1 M aqueous CaCl2 (1 ml) and 1M aqueous MgCl2 (5 ml) are added. The pH is adjusted to 7.6 with NaOH and the solution made to a final volume of 1 l using distilled water. 5 g bovine serum albumin and 0.1 g sodium azide are then dissolved in the solution and the resulting buffer stored at 4° C. A COMPLETE™ protease inhibitor cocktail tablet (available from Boehringer) is added per 50 ml of the buffer on the day of use. […]
The assay is performed in a final volume of 250 μl per well of an OPTIPLATE™ microplate (ex Canberra Packard). […] The resulting scintillations are counted using a Canberra Packard TopCount, each well being counted for 1 minute. […]

On to `COc1ccc(OC)c(S(=O)(=O)N2CCC(CN3CCN(Cc4ccc(F)cc4)CC3)CC2)c1` [Example 3, 1-[1-(2,5-dimethoxybenzenesulfonyl)piperidinyl-4-ylmethyl]-4-(4-fluorobenzyl)piperazine], for which the IC50 (commonly the midpoint of a concentration-inhibition curve) came to 0.056 µM. Next, `Cc1noc(C)c1S(=O)(=O)N1CCC(CN2CCN(Cc3ccc(F)cc3)CC2)CC1` [Example 1, 1-[1-(3,5-Dimethylisoxazole-4-sulfonyl)-piperdin-4-yl-methyl]-4-(4-fluorobenzyl)-piperazine]: 0.257 µM.

These data come from US7482347B2, “Piperazine derivatives with CCR-3 inhibiting activity” (priority 2004, dated 2009).
